Measurements published in US12415799B2, “Indazole-fused cyclic compound” (Zhejiang Yangli Pharmaceutical Technology Co., Ltd., priority 2020, dated 2025).
pIC50: −log10 of the molar value. Read-outs that look alike come from different tables or passages of the source.

How the values were obtained:
MCF-7 cells = test: MCF-7 cell proliferation inhibition experiment; format: cell-based; conditions: 6 days incubation, CellTiter-Glo, read-out: Anti-cell proliferation activity of MCF-7
Procedure: (1) MCF-7 Cell Proliferation Inhibition Experiment:
EMEM culture medium was purchased from Wisent, and fetal bovine serum was purchased from Biosera, Promega CellTiter-Glo reagent. MCF-7 cell line was purchased from Cell Bank of Type Culture Collection of Chinese Academy of Sciences. Nivo5 multi-label analyzer (PerkinElmer).
MCF-7 cells were seeded in a white 384-well plate with 600 cells per well in every […] of the cell suspension. The cell plate was placed in a carbon dioxide incubator and cultured overnight.
The test compound was diluted to the 10th concentration with a multi-channel pipette, and the compound concentration was 1 mM, 400 μM, and 80 μM, and then diluted to the 10th concentration of 1 nM in turn, and a double-duplicate experiment was set-up. 47.5 μL of culture medium was added to the middle plate, then 2.5 μL of gradient dilution compound per well was transferred to the middle plate according to the corresponding position, and 5 μL of the mixture per well was mixed evenly and transferred to the cell plate. The cell plate was placed in a carbon dioxide incubator and cultured for 6 days.
After 6 days of co-incubation of the compound, the culture medium was removed by centrifugation, and 25 μL of Promega CellTiter-Glo reagent was added to each well of the cell plate, and incubated at room temperature for 10 minutes to stabilize the luminescence signal. PerkinElmer Nivo multi-marker analyzer reading was used. In the experiment, the reading of 2 μM positive reference compound H3B-6545(US20160347717A1) was used as a positive control to participate in data calculation.
The equation % Inhibition=((RFUCmpd−AVER(RFUNeg.ctrl))/((AVER(RFUPos.Ctrl)−AVER(RFUNeg.ctrl))×100% was used to convert the original data into inhibition rate, and the compound curve was fitted by log(inhibitor)vs. response-Variable slope of Graphpad Prism 5. The IC50 value was calculated by the software through the formula Y=Bottom+(Top−Bottom)/(1+10^((Log IC50−X)*HillSlope)).

CYP1A2 = CYP1A2 (Homo sapiens (Human), UniProt P05177); format: in vitro ADME; conditions: microsomes
Chain of CYP1A2 (P05177 whole entry): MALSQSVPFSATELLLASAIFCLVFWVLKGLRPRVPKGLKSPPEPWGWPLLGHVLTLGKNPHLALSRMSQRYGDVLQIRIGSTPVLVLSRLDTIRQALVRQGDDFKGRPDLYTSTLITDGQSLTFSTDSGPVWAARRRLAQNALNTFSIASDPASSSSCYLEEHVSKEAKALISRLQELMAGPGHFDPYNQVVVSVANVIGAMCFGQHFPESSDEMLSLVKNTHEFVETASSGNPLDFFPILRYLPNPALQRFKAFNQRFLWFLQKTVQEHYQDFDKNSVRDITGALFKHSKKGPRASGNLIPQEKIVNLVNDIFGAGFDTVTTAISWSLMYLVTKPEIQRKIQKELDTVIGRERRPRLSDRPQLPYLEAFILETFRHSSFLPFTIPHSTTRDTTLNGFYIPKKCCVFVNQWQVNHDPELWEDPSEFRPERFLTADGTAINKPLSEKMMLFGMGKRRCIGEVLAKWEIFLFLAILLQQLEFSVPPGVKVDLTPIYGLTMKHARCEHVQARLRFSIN
Procedure: Experimental purposes: To test the inhibitory effect of test compound on the activity of human liver microsomal cytochrome P450 isoenzymes (CYP1A2 and CYP3A4) (Corning, Co., Ltd.).
Experimental operation: Firstly, the test compound (10 mM) was subjected to gradient dilution to prepare a working solution (100×final concentration), and the concentration of the working solution was: 5, 1.5, 0.5, 0.15, 0.05, 0.015 and 0.005 mM, respectively, and the working solution of each positive inhibitor of P450 isoenzyme (CYP1A2 and CYP3A4) and its specific substrate mixture (5 in 1) were prepared; and then the human liver microsomes frozen in the −80° C. refrigerator were thawed on ice, and all the human liver microsomes were dissolved, diluted with PB, and a certain concentration of working solution (0.253 mg/mL) was prepared; 20 μL of substrate mixture was added to the reaction plate (20 μL of PB was added to the blank well), while 158 μL of human liver microsomal working solution was added to the reaction plate, and the reaction plate was placed on ice for later use; at this time, 2 μL of various concentrations of the test compound (N=1) and specific inhibitor (N=2) were added to the corresponding well, and the corresponding organic solvent was added to the non-inhibitor (test compound or positive inhibitor) group as a control group sample (a ratio of DMSO:MeOH in the test compound control sample was 1:1, a ratio of DMSO:MeOH in the positive control sample was 1:9); after pre-incubation in a water bath at 37° C. for 10 min, 20 μL of coenzyme factor (NADPH) solution was added to the reaction plate, and incubated in a water bath at 37° C. for 10 min; and 400 μL of cold acetonitrile solution (internal standard was 200 ng/mL tolbutamide and labetalol) was added to terminate the reaction; the reaction plate was placed on a shaker and shaked for 10 minutes; and then centrifuged at 4,000 rpm for 20 minutes; 200 μL of the supernatant was taken and added to 100 μL of water for sample dilution; finally the plate was sealed, shaked and shaked well, for LC/MS/MS detection.

rat uterus = test: Uterine wet weight inhibition experiment in rat cubs; format: in vivo; conditions: 18-day-old female rat pups, oral, three consecutive days; compounds 25 mg/kg, Ethinylestradiol 0.1 mg/kg
Procedure: The purpose of this experiment was to evaluate the effect of the compound of the present disclosure on uterine growth inhibition in 18 to 21-day-old female rat pups (provided by Beijing Vital River Laboratory Animal Technology Co., Ltd.). In this experiment, 18-day-old female rat pups were orally administered the compound of the present disclosure at a dose of 25 mg/kg for three consecutive days, and the control group was orally administered 0.1 mg/kg of Ethinylestradiol for three consecutive days, and the blank group was not given any drug except the corresponding solvent. Three days after the administration, the rats were sacrificed, and the weight of the rat uterus was weighed to observe the effect of the test drug on the growth inhibition of the rat uterus. Inhibition rate=100×[(VehicleEE−Cpd)/(VehicleEE−Vehicle)], VehicleEE was the wet weight of the rat uterus in the control group (administered 0.1 mg/kg of Ethinylestradiol orally); Cpd was the wet weight of the rat uterus in administration group; Vehicle was the wet weight of the rat uterus in the blank group.

pIC50 (MCF-7 cells; Homo sapiens, MCF7, 144 h) | pIC50 (CYP1A2; human, 10 min) | Inhibition rate (rat uterus) | Uterine wet weight (rat uterus) | pIC50 (MCF-7 cells) | pIC50 (CYP1A2) | Compound | Ratio of uterine wet weight/rat body weight (rat uterus)
9.38 | < 4.30 | 95.8% | 52.34 mg |  |  | FCCCN1CC(Nc2ccc(C3=C(CC(F)(F)F)CCCc4c3ccc3[nH]nc(F)c43)nc2)C1 [Compound 2] | 0.84 mg/g
 |  | 99.0% | 49.725 mg | 9.77 | < 4.30 | FCCCN1CC[C@H](Nc2cnc(C3=C(CC(F)(F)F)CCCc4c3ccc3[nH]nc(F)c43)cn2)C1 [Compound 11A] | 1.05 mg/g
